# Where “and” joins values, the source holds several entries; their conditions need not be identical. Equal values may be shown once.
# What was measured:
# Assay in all cases: ≥ marks a high value that may be exact or a test limit, other limits are often not marked, values filed in µg/mL are converted to µM
# Escherichia coli W160-37 = system: Escherichia coli W160-37
# [1] = system: Staphylococcus aureus ATCC 6538
# [2] = system: Escherichia coli ATCC 2592
# [3] = system: Pseudomonas aeruginosa ATCC 9027
# [4] = system: Candida albicans ATCC 36232
# [5] = system: Micrococcus luteus ATCC 9341
# [6] = system: Candida albicans ATCC 20032
# [7] = system: Escherichia coli ATCC 25922
# [8] = system: Bacillus subtilis ATCC 6633
# [9] = system: Staphylococcus aureus ATCC 25923
# Bacillus subtilis 168 = system: Bacillus subtilis 168
# [10] = system: Bacillus subtilis ATCC 23857
# [11] = system: Klebsiella pneumoniae ATCC 700603
# [12] = system: Escherichia coli DH5alpha
# [13] = system: Acinetobacter baumannii ATCC 19606
# [14] = system: Pseudomonas aeruginosa ATCC 27853
# Staphylococcus aureus = system: Staphylococcus aureus
# [15] = system: Xanthomonas arboricola pv. pruni CFBP 5563
# [16] = system: Pseudomonas syringae pv. actinidiae Psa3700.1.1
# [17] = system: Erwinia amylovora PMV 6076
# [18] = system: Xanthomonas fragariae Xf349-9A
# [19] = system: Xanthomonas campestris pv. Vesicatoria 2133-2
# [20] = system: Pseudomonas syringae pv. syringae EPS 94
# Micrococcus luteus = system: Micrococcus luteus
# [21] = system: Pseudomonas aeruginosa ATCC 15692
# Saccharomyces cerevisiae = system: Saccharomyces cerevisiae
# [22] = system: Pseudomonas aeruginosa H1001
# [23] = system: Staphylococcus aureus NCTC 8325
smiles,measurement,setting,value
CC[C@H](C)[C@H](NC(=O)[C@H](CC(C)C)NC(=O)[C@H](C)NC(=O)[C@H](CC(C)C)NC(=O)[C@@H](N)Cc1ccccc1)C(=O)N[C@@H](CC(C)C)C(=O)N[C@@H](CCCN=C(N)N)C(=O)N[C@@H](CCCCN)C(=O)N[C@H](C(=O)N[C@H](C(=O)N[C@H](C(=O)N[C@@H](C)C(=O)N[C@@H](CC(C)C)C(N)=O)[C@@H](C)O)C(C)C)[C@@H](C)CC [FLALILRKIVTAL],MIC,Escherichia coli W160-37,≥ 40.8 µM
CC(C)C[C@H](NC(=O)[C@H](CS)NC(=O)[C@H](CCCCN)NC(=O)[C@H](C)NC(=O)[C@H](C)NC(=O)[C@H](CS)NC(=O)[C@H](C)NC(=O)[C@H](C)NC(=O)[C@@H](N)CCCCN)C(=O)N[C@@H](Cc1c[nH]c2ccccc12)C(=O)N[C@@H](CCCN=C(N)N)C(N)=O [KAACAAKCLWR],MIC,[1],41 µM and 81.9 µM
same,MIC,[2],≥ 164 µM
same,MIC,[3],81.9 µM and 164 µM
same,MIC,[4],≥ 164 µM
CC(C)[C@H](NC(=O)[C@H](CCCCN)NC(=O)[C@H](Cc1ccccc1)NC(=O)[C@@H](NC(=O)[C@@H](NC(=O)[C@H](CCCCN)NC(=O)[C@@H](N)CCCCN)C(C)C)C(C)C)C(=O)N[C@@H](CCCCN)C(=O)N[C@@H](Cc1ccccc1)C(=O)N[C@@H](CCCCN)C(=O)N[C@@H](CCCCN)C(=O)N[C@@H](CCCCN)C(N)=O [KKVVFKVKFKKK],MIC,[1],2.08 µM
same,MIC,[5],2.08 µM
same,MIC,[4],2.08 µM and 1.47 µM and 4.15 µM
CC[C@H](C)[C@H](NC(=O)CN)C(=O)NCC(=O)NCC(=O)N[C@@H](C)C(=O)N[C@@H](CC(C)C)C(=O)N[C@@H](CC(C)C)C(=O)N[C@@H](CO)C(=O)N[C@H](C(=O)NCC(=O)N[C@@H](CCCCN)C(=O)N[C@@H](CC(C)C)C(=O)N[C@@H](C)C(=O)N[C@@H](CC(C)C)C(=O)N[C@@H](CCCCN)C(=O)NCC(=O)N[C@@H](CC(C)C)C(=O)N[C@@H](C)C(=O)N[C@@H](CC(N)=O)C(=O)N[C@H](C(=O)N[C@@H](CC(C)C)C(=O)N[C@@H](C)C(=O)N[C@@H](CC(=O)O)C(=O)N[C@@H](CCCCN)C(=O)N[C@@H](Cc1ccccc1)C(=O)N[C@@H](C)C(=O)N[C@@H](CC(N)=O)C(N)=O)C(C)C)C(C)C [GIGGALLSVGKLALKGLANVLADKFAN],MIC,[6],14.4 µM
same,MIC,[7],> 38.3 µM
same,MIC,[8],14.4 µM
same,MIC,[9],1.8 µM
CC[C@H](C)[C@H](NC(=O)[C@H](CCCCN)NC(=O)[C@H](CCCCN)NC(=O)[C@@H](NC(=O)[C@@H](NC(=O)[C@H](CCCCN)NC(=O)[C@H](CCCCN)NC(=O)[C@@H](NC(=O)[C@@H](NC(=O)[C@H](CCCCN)NC(=O)[C@H](CCCCN)NC(=O)[C@@H](NC(=O)[C@@H](NC(=O)[C@H](CCCCN)NC(=O)[C@H](CCCCN)NC(=O)[C@@H](NC(=O)[C@@H](NC(=O)CN)[C@@H](C)CC)[C@@H](C)CC)[C@@H](C)CC)[C@@H](C)CC)[C@@H](C)CC)[C@@H](C)CC)[C@@H](C)CC)[C@@H](C)CC)C(N)=O [GIIKKIIKKIIKKIIKKI],MIC,Bacillus subtilis 168,0.5 µM
same,MIC,[10],2 µM
same,MIC,[11],8 µM
same,MIC,[12],2 µM
same,MIC,[7],8 µM
same,MIC,[9],4 µM
same,MIC,[13],4 µM
same,MIC,[14],4 µM
CC[C@H](C)[C@H](N)C(=O)N[C@@H](CC(C)C)C(=O)N1CCC[C@H]1C(=O)N[C@@H](CC(C)C)C(=O)N[C@@H](CCCCN)C(=O)N[C@@H](CC(C)C)C(=O)N1CCC[C@H]1C(=O)N[C@@H](Cc1c[nH]c2ccccc12)C(=O)N[C@@H](CC(C)C)C(=O)N1CCC[C@H]1C(=O)N[C@@H](CC(C)C)C(=O)N[C@@H](CCCN=C(N)N)C(=O)N[C@@H](CCCN=C(N)N)C(N)=O [ILPLKLPWLPLRR],MIC,Staphylococcus aureus,6.19 µM
same,MIC,Escherichia coli W160-37,12.4 µM
CSCC[C@H](NC(=O)CNC(=O)[C@@H](NC(=O)[C@H](CO)NC(=O)[C@H](Cc1ccccc1)NC(=O)[C@@H](NC(=O)[C@H](Cc1ccccc1)NC(=O)[C@H](Cc1ccc(O)cc1)NC(=O)[C@H](CO)NC(=O)[C@H](CCC(=O)O)NC(=O)[C@@H](N)[C@@H](C)O)C(C)C)C(C)C)C(N)=O [TESYFVFSVGM],MIC,[15],17.7 µM
same,MIC,[16],17.7 µM
same,MIC,[17],≥ 50 µM
same,MIC,[18],≥ 50 µM
same,MIC,[19],≥ 50 µM
same,MIC,[20],≥ 50 µM
CC[C@H](C)[C@H](NC(=O)[C@H](CC(C)C)NC(=O)[C@H](CCCCN)NC(=O)[C@H](CO)NC(=O)[C@H](C)NC(=O)CNC(=O)[C@H](CCCCN)NC(=O)[C@H](CC(C)C)NC(=O)[C@H](C)NC(=O)[C@H](CCSC)NC(=O)[C@H](CCCCN)NC(=O)[C@H](C)NC(=O)[C@H](Cc1ccccc1)NC(=O)[C@@H](NC(=O)CNC(=O)[C@H](Cc1ccccc1)NC(=O)[C@H](CC(C)C)NC(=O)[C@@H](N)CO)[C@@H](C)O)C(=O)N1CCC[C@H]1C(=O)N[C@@H](Cc1cnc[nH]1)C(=O)N[C@@H](CC(C)C)C(=O)N[C@@H](CC(C)C)C(=O)N1CCC[C@H]1C(=O)N[C@@H](CO)C(=O)N[C@@H](CCCN=C(N)N)C(=O)N[C@@H](CCC(N)=O)C(=O)N[C@@H](CCC(N)=O)C(=O)O [SLFGTFAKMALKGASKLIPHLLPSRQQ],MIC,Micrococcus luteus,0.5 µM
same,MIC,[21],5.66 µM
same,MIC,Saccharomyces cerevisiae,16 µM
same,MIC,[7],2.83 µM
same,MIC,[9],1 µM
CC[C@H](C)[C@H](NC(=O)[C@H](CCCN=C(N)N)NC(=O)[C@H](CCCN=C(N)N)NC(=O)[C@@H]1CCCN1C(=O)[C@@H]1CCCN1C(=O)[C@H](CCCN=C(N)N)NC(=O)[C@@H]1CCCN1C(=O)[C@H](CCCN=C(N)N)NC(=O)[C@@H]1CCCN1C(=O)[C@H](CC(C)C)NC(=O)[C@H](Cc1ccc(O)cc1)NC(=O)[C@@H]1CCCN1C(=O)[C@@H]1CCCN1C(=O)[C@H](CCCCN)NC(=O)[C@@H]1CCCN1C(=O)[C@@H](N)C(C)C)C(=O)N[C@@H](Cc1ccc(O)cc1)C(=O)N[C@@H](CC(N)=O)C(=O)N[C@@H](CCCN=C(N)N)C(=O)NCC(=O)O [VPKPPYLPRPRPPRRIYNRG],MIC,[22],0.123 µM
CC[C@H](C)[C@H](NC(=O)[C@H](C)NC(=O)[C@H](CCC(=O)O)NC(=O)[C@H](CC(C)C)NC(=O)CNC(=O)CNC(=O)[C@H](CCCCN)NC(=O)[C@H](C)NC(=O)[C@H](Cc1ccccc1)NC(=O)[C@H](CCCCN)NC(=O)[C@H](CCCCN)NC(=O)[C@H](CC(C)C)NC(=O)CNC(=O)CNC(=O)[C@H](CC(C)C)NC(=O)[C@@H](NC(=O)[C@@H](NC(=O)[C@H](CO)NC(=O)[C@H](Cc1c[nH]c2ccccc12)NC(=O)[C@@H](NC(=O)CN)C(C)C)[C@@H](C)O)C(C)C)C(=O)N[C@H](C(=O)N[C@@H](CC(N)=O)C(=O)N1CCC[C@H]1C(=O)N[C@@H](CCCCN)C(=O)O)C(C)C [GVWSTVLGGLKKFAKGGLEAIVNPK],MIC,Micrococcus luteus,0.5 µM
same,MIC,[21],≥ 32 µM
same,MIC,Saccharomyces cerevisiae,≥ 32 µM
same,MIC,[7],5.66 µM
same,MIC,[23],≥ 100 µM
same,MIC,[9],45.3 µM
CC[C@H](C)[C@H](NC(=O)[C@H](CCCCN)NC(=O)[C@H](Cc1c[nH]c2ccccc12)NC(=O)[C@H](CCCCN)NC(=O)[C@@H](N)CCCCN)C(=O)N[C@H](C(=O)N[C@H](C(=O)N[C@H](C(=O)N[C@@H](CCCN=C(N)N)C(=O)N[C@@H](Cc1c[nH]c2ccccc12)C(=O)N[C@@H](CCCN=C(N)N)C(=O)N[C@@H](CCCN=C(N)N)C(N)=O)[C@@H](C)CC)C(C)C)C(C)C [KKWKIVVIRWRR],MIC,[22],1.2 µM
CC[C@H](C)[C@H](NC(=O)[C@H](Cc1c[nH]c2ccccc12)NC(=O)[C@H](CCCCN)NC(=O)[C@H](CC(C)C)NC(=O)[C@H](Cc1ccccc1)NC(=O)[C@H](CCCCN)NC(=O)[C@H](CC(C)C)NC(=O)[C@H](CC(C)C)NC(=O)[C@H](CCCCN)NC(=O)[C@@H]1CCCN1)C(=O)NCC(=O)O [PKLLKFLKWIG],MIC,Staphylococcus aureus,8 µM
same,MIC,Escherichia coli W160-37,31 µM

# Reference: DBAASP
